Data taken from US20120015923A1, “USE OF ANDROGRAPHOLIDE COMPOUNDS FOR TREATING INFLAMMATION AND AIRWAY DISORDERS” (NATIONAL UNIVERSITY OF SINGAPORE, priority 2009, published 2012).

Tests used:
Type in all cases: in vivo, BALB/c mice
[1] = tested on: inflammatory gene expression in lung tissues; test: Pulmonary mRNA expression of inflammatory markers (RT-PCR); details: lungs 24 hours after last OVA aerosol
Protocol: Lungs were isolated from the thoracic cavity 24 hours after the last OVA or saline challenge, and stored in RNAlater. The samples were first incubated at […] overnight for the RNAlater to permeate into the lung tissues to stabilize the RNA. The samples were then stored at −80° C. Before RNA isolation, lung tissues were thawed at […] They were then removed from the RNAlater and immersed in 1 ml Trizol solution. Then, homogenization was performed using a homogenizer (SilentCrusher M, Heidolph Elektro GmbH & Co., Kelheim, Genman). All samples were placed on ice to prevent RNA degradation. The homogenates were then centrifuged at 12,000 g for 10 min at 4° C. The clear RNA containing supernatant was then decanted, incubated for 5 min in room temperature, and 0.2 ml of chloroform was added. All tubes were shaken vigorously for 15 seconds and incubated at room temperature for 3 minutes before being centrifuged at 12,000 g for 15 min at 4° C. About 500 μl of the colourless upper aqueous layer containing RNA, was decanted. 0.5 ml of isopropanol was added and mixed for 30 sec, before being incubated at room temperature for 10 minutes. The tubes were then centrifuged at 12000 rpm for 15 min at 4° C. The supernatant was discarded and 1 ml of 75% ethanol was added to the RNA pellet. Centrifugation at 8500 rpm for 5 minutes at 4° C. was then performed to wash the pellet. The supernatant was again discarded and the washed RNA pellet was air-dried at room temperature for 10 min. The dried RNA pellet was dissolved in 100 μl of ribonuclease-free DEPC water and incubated at 55° C. for 10 minutes. The amount and purity of RNA present in the sample was quantified using the spectrophotometer (NanoDrop ND-1000 from Thermo Risher
Reverse transcription was performed to synthesize single-stranded complementary DNA (cDNA) templates from the RNA extracted. Volume containing 1 μg total RNA was calculated based on the nucleic acid concentration measured from the spectrophotometer, and was topped up to 20 μl with DEPC water. 10.58 μl of master mix was then added to each sample. Then, cDNA was synthesized from 1 μg of RNA using a multiwall thermal cycler (GeneAmp PCR system 2700 from Applied Biosystems, Foster City, Calif., USA) by bringing the reaction volume to 95° C. for 10 minutes and 42° C. for 30 minutes.
PCR amplifications were then performed using the multiwell thermal cycler on 1 μl cDNA template in a 25 μl reaction volume. The reaction volume contained 10.5 μl nuclease-free water, 0.5 μl forward primer (10 μM), 0.5 μl reverse primer (10 μM) and 12.5 μl 2×PCR master mix (50 units/ml TaqDNA polymerase, 400 μM dATP, 400 μM dGTP, 400 μM dCTP, 400 μM dTTP and 3 mM MgCl2).

[2] = tested on: IL-4, IL-5, IL-13, eotaxin and IFN-γ in the BAL fluid; test: Cytokine and chemokine levels in BAL fluid (ELISA), OVA mouse asthma model; details: OVA-challenged mice
[3] = tested on: Nitric Oxide (NO); test: Serum nitrate nitrite level; details: OVA-challenged mice
[4] = tested on: p65 NF-κB; test: p65 NF-κB nuclear translocation and DNA-binding in lung tissue nuclear extracts; details: 1 mg/kg; 24 hours after last OVA aerosol; reduced to the basal levels
Protocol: Lung and cell culture nuclear proteins ([…]) were isolated. Lysates were incubated on ice for 30 min before centrifugation (18,000 g for 5 min). The supernatants were collected, and protein concentrations were determined using a BCA protein assay kit. 28 μl of the protein measured were mixed with 7 μl 5× sample buffer and boiled at 95° C. for 5 min. 10% SDS-PAGE gel was set as known in the art. The gel was placed in a Trans-Blot tank (Bio-Rad Laboratories, Hercules, Calif.). 30 μl of the sample mixtures and Pre-stained SDS Page Marker (Bio-Rad Laboratories, Hercules, Calif.) were loaded into respective wells and ran at 100V for 2 hours. The proteins were then transferred to a PVDF membrane using a semi-dry transblotter (ATTO Corp, Tokyo, Japan). The PVDF membrane was blocked with 5% non-fat milk in Tween-20 Tris buffered saline (TTBS) for 2 hours and probed with various primary antibodies in 1% non-fat milk in TTBS (1:2,000 for anti-rabbit antibodies; 1:5,000 for anti-mouse antibodies; 1:10,000 for β-actin) overnight at 4° C. The PVDF was then washed with TTBS for 10 times (2-3 min each), and incubated in HRP- or AP-conjugated anti-mouse or anti-rabbit antibodies for 1 hour. The membrane was again washed with TTBS. […]
Nuclear proteins were also analyzed for NF-κB DNA-binding activity using the TransAM p65 transcription factor assay kit (Active Motif, Carlsbad, Calif.).

C=C1CC[C@@H]2[C@](C)(CO)[C@H](O)CC[C@@]2(C)[C@@H]1C/C=C1/C(=O)OC[C@H]1O [Andrographolide]
attenuated: inducible nitric oxide synthase mRNA expression in lung tissues [1] | E-selectin mRNA expression in lung tissues ([1]; DDAG 1 mg/kg) | Muc5ac mRNA expression in lung tissues ([1]; DDAG 1 mg/kg)
markedly down-regulated: AMCase mRNA expression in lung tissues ([1]; DDAG 1 mg/kg) | YKL-40 mRNA expression in lung tissues ([1]; DDAG 1 mg/kg) | Ym2 mRNA expression in lung tissues ([1]; DDAG 1 mg/kg)
inhibition: ICAM-1 gene expression in lung [1] | VCAM-1 gene expression in lung [1] | YM1 gene expression in lung [1]
inhibited: GM-CSF level in BAL fluid [2] | TNF-α level in BAL fluid [2]

C=C1CCC2C(C)(CO)C(O)CCC2(C)C1C=CC1=CCOC1=O (stereo not shown) [DDAG, 14-Deoxy-11,12-didehydroandrographolide]
reduce: serum nitrate nitrite level [3]
strong suppression: AMCase mRNA expression in lung tissues ([1]; DDAG 1 mg/kg) | COX2 mRNA expression in lung tissues ([1]; DDAG 1 mg/kg) | E-selectin mRNA expression in lung tissues ([1]; DDAG 1 mg/kg) | IL-17 mRNA expression in lung tissues ([1]; DDAG 1 mg/kg) | IL-33 mRNA expression in lung tissues ([1]; DDAG 1 mg/kg) | Muc5ac mRNA expression in lung tissues ([1]; DDAG 1 mg/kg) | YKL-40 mRNA expression in lung tissues ([1]; DDAG 1 mg/kg) | Ym2 mRNA expression in lung tissues ([1]; DDAG 1 mg/kg)
significantly (P<0.05) reduced: nuclear p65 DNA-binding activity in lung tissue nuclear extract [4] | nuclear p65 amount in lung tissue nuclear extract [4]
